The experiment has as its system MV-4-11 cells. The experiment in a line: Gene expression microarray analysis (Affymetrix PrimeView) and GSEA. It is filed as cell-based, human. On the set-up: RFU PODN (11730768_x_at) / Fold change /veh PODN (11730768_x_at) / RFU LINC00158 (11744669_a_at) / Fold change /veh LINC00158 (11744669_a_at) / RFU DUSP10 (11751237_a_at) / Fold change /veh DUSP10 (11751237_a_at) / RFU ID3 (11757404_x_at) / Fold change /veh ID3 (11757404_x_at) / RFU PLEKHG5 (11737974_s_at) / Fold change /veh PLEKHG5 (11737974_s_at) / RFU LRRC4B (11730491_at) / Fold change /veh LRRC4B (11730491_at) / RFU GIMAP4 (11747438_a_at) / Fold change /veh GIMAP4 (11747438_a_at) / RFU KRT8 (11758183_x_at) / Fold change /veh KRT8 (11758183_x_at) / RFU CNN1 (11734310_a_at) / Fold change /veh CNN1 (11734310_a_at) / RFU VPS37D (11726825_at) / Fold change /veh VPS37D (11726825_at) / RFU C10orf10 (11716522_x_at) / Fold change /veh C10orf10 (11716522_x_at) / RFU KIR2DL2 /// KIR2DL4 /// KIR2DL5A /// KIR2DL5B /// KIR2DS1 /// KIR2DS2 /// KIR2DS3 /// KIR2DS4 /// KIR3DL3 /// KIR3DL3 /// KIR3DS1 (11738374_at) / Fold change /veh KIR2DL2 /// KIR2DL4 /// KIR2DL5A /// KIR2DL5B /// KIR2DS1 /// KIR2DS2 /// KIR2DS3 /// KIR2DS4 /// KIR3DL3 /// KIR3DL3 /// KIR3DS1 (11738374_at) / RFU C1QL1 (11718748_at) / Fold change /veh C1QL1 (11718748_at) / RFU TMPRSS4 (11747572_a_at) / Fold change /veh TMPRSS4 (11747572_a_at) / RFU HAMP (11756126_x_at) / Fold change /veh HAMP (11756126_x_at) / RFU RNFT2 (11725882_a_at) / Fold change /veh RNFT2 (11725882_a_at) / RFU NR4A2 (11747474_a_at) / Fold change /veh NR4A2 (11747474_a_at) / RFU ABCC12 (11746883_a_at) / Fold change /veh ABCC12 (11746883_a_at) / RFU TMEM136 (11760407_x_at) / Fold change /veh TMEM136 (11760407_x_at) / RFU CLDN22 /// WWC2 (11732394_at) / Fold change /veh CLDN22 /// WWC2 (11732394_at) / RFU HLA-DPB1 (11760878_x_at) / Fold change /veh HLA-DPB1 (11760878_x_at) / RFU SPINT1 (11716480_a_at) / Fold change /veh SPINT1 (11716480_a_at) / RFU GAP43 (11754022_s_at) / Fold change /veh GAP43 (11754022_s_at) / RFU A4GNT (11735810_at) / Fold change /veh A4GNT (11735810_at) / RFU PRB3 (11715151_x_at) / Fold change /veh PRB3 (11715151_x_at) / RFU TUBB4B (11761932_at) / Fold change /veh TUBB4B (11761932_at) / RFU CAPN14 (11732068_a_at) / Fold change /veh CAPN14 (11732068_a_at) / RFU TMCC2 (11721928_a_at) / Fold change /veh TMCC2 (11721928_a_at) / RFU IRGQ (11745062_a_at) / Fold change /veh IRGQ (11745062_a_at) / RFU FAM174B (11720279_a_at) / Fold change /veh FAM174B (11720279_a_at) / RFU TMPRSS4 (11748680_a_at) / Fold change /veh TMPRSS4 (11748680_a_at) / RFU FAM212B (11763350_a_at) / Fold change /veh FAM212B (11763350_a_at) / RFU PLEKHG5 (11743358_a_at) / Fold change /veh PLEKHG5 (11743358_a_at) / RFU ZSCAN30 (11745921_a_at) / Fold change /veh ZSCAN30 (11745921_a_at) / RFU CMKLR1 (11741424_a_at) / Fold change /veh CMKLR1 (11741424_a_at) / RFU LOC101060620 /// MAPK8IP1 (11723275_at) / Fold change /veh LOC101060620 /// MAPK8IP1 (11723275_at) / RFU SPTSSB (11747773_x_at) / Fold change /veh SPTSSB (11747773_x_at) / RFU PRSS12 (11739890_at) / Fold change /veh PRSS12 (11739890_at) / RFU BIN1 (11741810_x_at) / Fold change /veh BIN1 (11741810_x_at) / RFU WNT11 (11732464_a_at) / Fold change /veh WNT11 (11732464_a_at) / RFU C10orf10 (11716521_a_at) / Fold change /veh C10orf10 (11716521_a_at) / RFU C5orf56 (11738089_at) / Fold change /veh C5orf56 (11738089_at) / RFU CYB561 (11721691_x_at) / Fold change /veh CYB561 (11721691_x_at) / RFU ANKRD19P (11752326_a_at) / Fold change /veh ANKRD19P (11752326_a_at) / RFU OR2T12 /// OR2T33 /// OR2T8 (11738714_s_at) / Fold change /veh OR2T12 /// OR2T33 /// OR2T8 (11738714_s_at) / RFU VCAN (11748164_a_at) / Fold change /veh VCAN (11748164_a_at) / RFU JSRP1 (11732532_at) / Fold change /veh JSRP1 (11732532_at) / RFU KRTAP10-11 (11738290_x_at) / Fold change /veh KRTAP10-11 (11738290_x_at) / RFU MYO3A (11730013_a_at) / Fold change /veh MYO3A (11730013_a_at) / RFU EBF3 (11725865_a_at) / Fold change /veh EBF3 (11725865_a_at) / RFU CAMK2N1 (11719241_x_at) / Fold change /veh CAMK2N1 (11719241_x_at) / RFU C5orf56 (11738088_a_at) / Fold change /veh C5orf56 (11738088_a_at) / RFU OLFML3 (11715873_a_at) / Fold change /veh OLFML3 (11715873_a_at) / RFU LOC100653217 /// NTM (11731650_a_at) / Fold change /veh LOC100653217 /// NTM (11731650_a_at) / RFU MAPK11 (11762145_a_at) / Fold change /veh MAPK11 (11762145_a_at) / RFU FIZ1 (11724087_x_at) / Fold change /veh FIZ1 (11724087_x_at) / RFU OASL (11726364_x_at) / Fold change /veh OASL (11726364_x_at) / RFU SOX15 (11748057_x_at) / Fold change /veh SOX15 (11748057_x_at) / RFU CD79A (11719716_a_at) / Fold change /veh CD79A (11719716_a_at) / RFU HIST1H1D (11736915_at) / Fold change /veh HIST1H1D (11736915_at) / RFU CASKIN2 (11723855_a_at) / Fold change /veh CASKIN2 (11723855_a_at) / RFU LOC730098 (11760151_x_at) / Fold change /veh LOC730098 (11760151_x_at) / RFU OR4N2 (11742367_at) / Fold change /veh OR4N2 (11742367_at) / RFU PRRT2 (11749266_a_at) / Fold change /veh PRRT2 (11749266_a_at) / RFU SNX32 (11753110_a_at) / Fold change /veh SNX32 (11753110_a_at) / RFU CDHR5 (11726645_a_at) / Fold change /veh CDHR5 (11726645_a_at) / RFU RCAN1 (11760418_a_at) / Fold change /veh RCAN1 (11760418_a_at) / RFU FAM167A (11723789_a_at) / Fold change /veh FAM167A (11723789_a_at) / RFU FAM26E (11764081_at) / Fold change /veh FAM26E (11764081_at) / RFU ISYNA1 (11749810_s_at) / Fold change /veh ISYNA1 (11749810_s_at) / RFU ACY1 (11761880_at) / Fold change /veh ACY1 (11761880_at) / RFU 11764098_at / Fold change /veh 11764098_at / RFU SAMD14 (11745864_x_at) / Fold change /veh SAMD14 (11745864_x_at) / RFU NPB (11741838_a_at) / Fold change /veh NPB (11741838_a_at) / RFU TMPRSS6 (11731388_a_at) / Fold change /veh TMPRSS6 (11731388_a_at) / RFU KRTAP10-2 (11738614_at) / Fold change /veh KRTAP10-2 (11738614_at) / RFU ARHGAP8 /// PRR5-ARHGAP8 (11727945_x_at) / Fold change /veh ARHGAP8 /// PRR5-ARHGAP8 (11727945_x_at) / RFU KRTAP5-7 /// NADSYN1 (11734609_at) / Fold change /veh KRTAP5-7 /// NADSYN1 (11734609_at) / RFU RASL12 (11751679_a_at) / Fold change /veh RASL12 (11751679_a_at) / RFU CDKN2B (11736163_a_at) / Fold change /veh CDKN2B (11736163_a_at) / RFU PRF1 (11729649_at) / Fold change /veh PRF1 (11729649_at) / RFU, ZNF638 /// ZNF638-IT1 / Fold change vs veh, ZNF638 /// ZNF638-IT1 / RFU, PANK3 / Fold change vs veh, PANK3 / RFU, SH3YL1 / Fold change vs veh, SH3YL1 / RFU, ZEB2 / Fold change vs veh, ZEB2 / RFU, NRIP1 / Fold change vs veh, NRIP1 / RFU, PTTG1IP / Fold change vs veh, PTTG1IP / RFU, CAPN2 / Fold change vs veh, CAPN2 / RFU, MED14 / Fold change vs veh, MED14 / RFU, SNORA58 / Fold change vs veh, SNORA58 / RFU, C1orf63 / Fold change vs veh, C1orf63 / RFU, LRRFIP1 / Fold change vs veh, LRRFIP1 / RFU, NDUFAF7 / Fold change vs veh, NDUFAF7 / RFU, SLC12A2 / Fold change vs veh, SLC12A2 / RFU, IBTK / Fold change vs veh, IBTK / RFU, ESF1 / Fold change vs veh, ESF1 / Fold change vs veh, TMEM50B / RFU, TAOK1 / Fold change vs veh, TAOK1 / RFU, ACBD3 / Fold change vs veh, ACBD3 / RFU, TMA16 / Fold change vs veh, TMA16 / RFU, RWDD3 / Fold change vs veh, RWDD3 / RFU, BCAT1 / Fold change vs veh, BCAT1 / RFU, EDEM3 / Fold change vs veh, EDEM3 / RFU, TMEM33 / Fold change vs veh, TMEM33 / RFU, WDR75 / Fold change vs veh, WDR75 / RFU, AHCTF1 / Fold change vs veh, AHCTF1 / RFU, TFRC / Fold change vs veh, TFRC / RFU, ZDHHC17 / Fold change vs veh, ZDHHC17 / RFU, NOM1 / Fold change vs veh, NOM1 / RFU, ARL8B / Fold change vs veh, ARL8B / RFU, ZBTB11 / Fold change vs veh, ZBTB11 / RFU, TAMM41 / Fold change vs veh, TAMM41 / RFU, KIAA1704 /// LOC100996395 / Fold change vs veh, KIAA1704 /// LOC100996395 / RFU, ING1 / Fold change vs veh, ING1 / RFU, TRMT61B / Fold change vs veh, TRMT61B / RFU, FUBP3 / Fold change vs veh, FUBP3 / RFU, TP53 / Fold change vs veh, TP53 / RFU, TNKS2 / Fold change vs veh, TNKS2 / RFU, ZFP14 / Fold change vs veh, ZFP14 / RFU, ACTR2 / Fold change vs veh, ACTR2 / RFU, PPP3R1 / Fold change vs veh, PPP3R1 / RFU, PIK3R1 / Fold change vs veh, PIK3R1 / RFU, HNRNPA1 / Fold change vs veh, HNRNPA1 / RFU, RNF170 / Fold change vs veh, RNF170 / RFU, ZNF28 / Fold change vs veh, ZNF28 / RFU, RNGTT / Fold change vs veh, RNGTT / RFU, OGT / Fold change vs veh, OGT / RFU, BRD1 / Fold change vs veh, BRD1 / RFU, MARS / Fold change vs veh, MARS / RFU, ZNF655 / Fold change vs veh, ZNF655 / RFU, FAHD1 / Fold change vs veh, FAHD1 / RFU, BDP1 / Fold change vs veh, BDP1 / RFU, LRRCC1 / Fold change vs veh, LRRCC1 / RFU, ARID1A / Fold change vs veh, ARID1A / RFU, ZNF146 / Fold change vs veh, ZNF146 / RFU, ZNF330 / Fold change vs veh, ZNF330 / RFU, GPN3 / Fold change vs veh, GPN3 / RFU, C9orf123 / Fold change vs veh, C9orf123 / RFU, N4BP2L2 / Fold change vs veh, N4BP2L2 / RFU, ARFIP1 / Fold change vs veh, ARFIP1 / RFU, FAM179B / Fold change vs veh, FAM179B / RFU, BCL10 / Fold change vs veh, BCL10 / RFU, UHRF1BP1L / Fold change vs veh, UHRF1BP1L / RFU, BET1 / Fold change vs veh, BET1 / RFU, CNOT2 / Fold change vs veh, CNOT2 / RFU, ZNF268 / Fold change vs veh, ZNF268 / Fold change vs veh, ZNF507 / RFU, DGCR2 / Fold change vs veh, DGCR2 / RFU, WDSUB1 / Fold change vs veh, WDSUB1 / Fold change vs veh, HSP90B1 /// MIR3652 / RFU, ADSS / Fold change vs veh, ADSS / RFU, GK / Fold change vs veh, GK / RFU, ZNF148 / Fold change vs veh, ZNF148 / RFU, TAF9 / Fold change vs veh, TAF9 / RFU, SLC1A5 / Fold change vs veh, SLC1A5 / RFU, SLMO2 / Fold change vs veh, SLMO2 / RFU, ABCC4 / Fold change vs veh, ABCC4 / RFU, LOC101060439 /// RAP1B / Fold change vs veh, LOC101060439 /// RAP1B / RFU, RFX7 / Fold change vs veh, RFX7 / RFU, GTPBP10 / Fold change vs veh, GTPBP10 / RFU, CNEP1R1 / Fold change vs veh, CNEP1R1 / RFU, BIVM-ERCC5 /// ERCC5 / Fold change vs veh, BIVM-ERCC5 /// ERCC5 / RFU, ILF3 / Fold change vs veh, ILF3 / RFU 11762660_at / Fold change /veh 11762660_at / RFU VCAN (11757783_s_at) / Fold change /veh VCAN (11757783_s_at) / RFU DDX43 (11728927_at) / Fold change /veh DDX43 (11728927_at) / RFU KRT8 (11758188_x_at) / Fold change /veh KRT8 (11758188_x_at) / RFU NKD1 (11759106_at) / Fold change /veh NKD1 (11759106_at) / RFU SRD5A1 (11742802_a_at) / Fold change /veh SRD5A1 (11742802_a_at) / RFU TPSAB1 /// TPSB2 (11721975_s_at) / Fold change /veh TPSAB1 /// TPSB2 (11721975_s_at) / RFU GSTM3 (11746129_a_at) / Fold change /veh GSTM3 (11746129_a_at) / RFU IL23R (11737362_x_at) / Fold change /veh IL23R (11737362_x_at) / RFU TMEM51 (11727254_a_at) / Fold change /veh TMEM51 (11727254_a_at) / RFU PIWIL2 (11732686_x_at) / Fold change /veh PIWIL2 (11732686_x_at) / RFU ORM1 (11744905_x_at) / Fold change /veh ORM1 (11744905_x_at) / RFU CCDC152 (11743942_at) / Fold change /veh CCDC152 (11743942_at) / RFU ECM1 (11717891_a_at) / Fold change /veh ECM1 (11717891_a_at) / RFU IL23R (11748794_a_at) / Fold change /veh IL23R (11748794_a_at) / RFU TNFAIP8L3 (11732012_x_at) / Fold change /veh TNFAIP8L3 (11732012_x_at) / RFU MBOAT4 (11741988_at) / Fold change /veh MBOAT4 (11741988_at) / RFU 11764193_at / Fold change /veh 11764193_at / RFU TMEM53 (11763286_at) / Fold change /veh TMEM53 (11763286_at) / RFU MAGEB2 (11727129_at) / Fold change /veh MAGEB2 (11727129_at) / RFU TMEM200A (11744735_a_at) / Fold change /veh TMEM200A (11744735_a_at) / RFU CCDC152 (11751479_a_at) / Fold change /veh CCDC152 (11751479_a_at) / RFU FAM211A (11726209_a_at) / Fold change /veh FAM211A (11726209_a_at) / RFU RGS16 (11746705_a_at) / Fold change /veh RGS16 (11746705_a_at) / RFU VCAN (11755009_s_at) / Fold change /veh VCAN (11755009_s_at) / RFU RHOB (11743442_s_at) / Fold change /veh RHOB (11743442_s_at) / RFU RGS16 (11720943_a_at) / Fold change /veh RGS16 (11720943_a_at) / RFU RGS16 (11720944_at) / Fold change /veh RGS16 (11720944_at) / RFU, VPS4B / Fold change vs veh, VPS4B / RFU, CREB1 / Fold change vs veh, CREB1 / RFU, DNAJC13 / Fold change vs veh, DNAJC13 / RFU, GNAQ / Fold change vs veh, GNAQ / RFU, CDK5R1 / Fold change vs veh, CDK5R1 / RFU, ZRANB3 / Fold change vs veh, ZRANB3 / RFU, CUL4A / Fold change vs veh, CUL4A / RFU, CCNY / Fold change vs veh, CCNY / RFU, UFL1 / Fold change vs veh, UFL1 / RFU, COG3 / Fold change vs veh, COG3 / RFU, DIAPH2 / Fold change vs veh, DIAPH2 / RFU, SKA2 / Fold change vs veh, SKA2 / RFU, AFF3 / Fold change vs veh, AFF3 / RFU, LMF1 / Fold change vs veh, LMF1 / RFU, IPO11 / Fold change vs veh, IPO11 / RFU, DFFB / Fold change vs veh, DFFB / RFU, FOXP1 / Fold change vs veh, FOXP1 / RFU, CARD8 / Fold change vs veh, CARD8 / RFU, STRN3 / Fold change vs veh, STRN3 / RFU, ADK / Fold change vs veh, ADK / RFU, RASSF2 / Fold change vs veh, RASSF2 / RFU, WIPF1 / Fold change vs veh, WIPF1 / RFU, LARP1B / Fold change vs veh, LARP1B / RFU, RASA1 / Fold change vs veh, RASA1 / RFU, RB1 / Fold change vs veh, RB1 / RFU, PPFIA1 / Fold change vs veh, PPFIA1 / RFU, MAT2A / Fold change vs veh, MAT2A / RFU, CCT5 / Fold change vs veh, CCT5 / RFU, WDR92 / Fold change vs veh, WDR92 / RFU, CUX1 / Fold change vs veh, CUX1 / RFU, TTC7A / Fold change vs veh, TTC7A / RFU, TMEM135 / Fold change vs veh, TMEM135 / RFU, DEPTOR / Fold change vs veh, DEPTOR / RFU, CPM / Fold change vs veh, CPM / RFU, DNAJB6 / Fold change vs veh, DNAJB6 / RFU, CACNA2D3 / Fold change vs veh, CACNA2D3 / RFU, DTX4 / Fold change vs veh, DTX4 / RFU, TFCP2 / Fold change vs veh, TFCP2 / RFU, GMCL1 /// GMCL1P1 / Fold change vs veh, GMCL1 /// GMCL1P1 / RFU, AEBP2 / Fold change vs veh, AEBP2 / RFU, SNHG1 /// SNORD22 /// SNORD25 /// SNORD26 /// SNORD27 /// SNORD28 /// SNORD29 /// SNORD31 / Fold change vs veh, SNHG1 /// SNORD22 /// SNORD25 /// SNORD26 /// SNORD27 /// SNORD28 /// SNORD29 /// SNORD31 / Fold change (Aza/veh), C12orf56 (ProbeSet 11735607_a_at) / Fold change (ACY-1035/veh), C12orf56 (ProbeSet 11735607_a_at) / Fold change (Aza/veh), FGFR1OP (ProbeSet 11751329_s_at) / Fold change (ACY-1035/veh), FGFR1OP (ProbeSet 11751329_s_at) / Fold change (Aza/veh), VPS36 (ProbeSet 11739960_a_at) / Fold change (ACY-1035/veh), VPS36 (ProbeSet 11739960_a_at) / RFU SYPL1 (11715823_x_at) / Fold change /veh SYPL1 (11715823_x_at) / RFU IGFBP7 (11715501_s_at) / Fold change /veh IGFBP7 (11715501_s_at) / RFU REEP3 (11722064_at) / Fold change /veh REEP3 (11722064_at) / RFU IGLL1 (11728026_x_at) / Fold change /veh IGLL1 (11728026_x_at): dose or concentration left out as unconfirmed. The settings on record: ProbeSet 11743362_s_at; LIST B.

The source of these data is article PMC5218480 (PLoS ONE, 2017).

The structures appear in SMILES notation.

In the case of `Nc1ncn([C@@H]2O[C@H](CO)[C@@H](O)[C@H]2O)c(=O)n1` [azacitidine], the “Fold change vs veh, ADSS” value was 0.89.
